Residue numbers refer to the chain shown, from its start.
Legend:
[1] = biological target: T1, ZAC^L9′V (Homo sapiens, UniProt Q401N2, A152T/L270V); assay: TEVC in oocytes, ZAC L9′V mutant; assay type: cell-based; settings: agonist; n = 8
T1 construct: expressed in transfected cells; host or cells: Xenopus oocytes (cRNA injection, pUNIV vector)
T1 sequence (Q401N2 26-412 A152T/L270V): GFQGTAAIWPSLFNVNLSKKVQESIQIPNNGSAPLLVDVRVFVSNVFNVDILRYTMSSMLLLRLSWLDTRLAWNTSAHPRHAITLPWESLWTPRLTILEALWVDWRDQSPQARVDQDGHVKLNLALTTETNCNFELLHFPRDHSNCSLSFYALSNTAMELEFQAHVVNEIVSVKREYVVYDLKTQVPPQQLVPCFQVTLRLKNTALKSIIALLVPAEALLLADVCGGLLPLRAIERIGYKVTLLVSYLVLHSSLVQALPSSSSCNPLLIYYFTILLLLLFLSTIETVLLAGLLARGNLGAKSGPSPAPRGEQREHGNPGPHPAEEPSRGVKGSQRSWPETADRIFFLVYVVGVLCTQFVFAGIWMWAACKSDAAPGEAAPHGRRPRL
Method: (§1) The recordings were performed at room temperature.
(§2) Analysis of the data from the TEVC recordings were performed using Clampfit software version 10.5 (Molecular Devices, Crawley, UK) and GraphPad Prism version 7.0c (GraphPad Software, La Jolla, CA). Unless otherwise stated, the inward currents induced by agonists in oocytes were normalized to the maximal response elicited by a specific agonist (agonist Imax) on each oocyte. Concentration-response and concentration-inhibition curves were fitted in GraphPad Prism by nonlinear regression using the equation for sigmoidal dose-response with variable slope. Each data point represents the mean ± S.E.M. value of recordings performed on at least five oocytes in total from at least two different batches. For the data where statistical analysis was performed, a one-way ANOVA was used. The null hypothesis was rejected at P < 0.05, and the differences between the means were analyzed by Tukey’s multiple comparisons test.

[2] = biological target: T2, ZAC^E136A/H139A/D143A/H144A (Homo sapiens, UniProt Q401N2, A152T/D167A/E160A/H163A/H168A); assay: TEVC in oocytes, Cluster 2 quadruple mutant; assay type: cell-based; settings: Zn^2+ 10 mM; H^+ pH 4.0; data not shown
T2 construct: expressed in transfected cells; host or cells: Xenopus oocytes injected with cRNA (pUNIV vector)
Method: as §1
as §2, with “For the data where statistical analysis was performed, a one-way ANOVA was used.” left out
(§3) The putative involvement of candidate residues in Clusters 1, 2, 3 and 4 in Zn^2+ binding to ZAC was investigated in by an elaborate alanine mutagenesis scanning. […] The determined IpH 4.0 value was used in part as a control and in part to enable the distinction of ZAC mutants non-responsive to Zn^2+ due to elimination of their ability to bind the metal ion from those where the mutation had eliminated cell surface expression and/or disrupted overall functionality of the receptor complex. […]

[3] = biological target: T3, ZAC^D105A/E130A (Homo sapiens, UniProt Q401N2, A152T/D129A/E154A); assay: TEVC in oocytes, ZAC D105A/E130A mutant; assay type: cell-based; settings: 10 mM Zn^2+; data not shown
T3 construct: expressed in transfected cells; host or cells: Xenopus oocytes injected with cRNA (pUNIV vector)
Method: as §1
as §2, with “For the data where statistical analysis was performed, a one-way ANOVA was used.” left out
as §3

[4] = system: ZAC/m5-HT3A; assay: TEVC in oocytes expressing ZAC/m5-HT3A chimera; assay type: cell-based, mouse/human; settings: 10 mM Zn^2+; n = 5
Method: as §1, §2
Initially, we constructed four chimeric subunits fusing the ZAC ECD or TMD-ICD with the complementary domains from either the m5-HT3A or the hα1 GlyR subunit: ZAC/m5-HT3A, m5-HT3A/ZAC, ZAC/hα1-Gly and hα1-Gly/ZAC (Fig. 1A). […] (Fig. 1A).

[5] = biological target: T4, ZAC^H166A (Homo sapiens, UniProt Q401N2, A152T/H190A); assay: TEVC in oocytes, ZAC H166A mutant; assay type: cell-based
T4 construct: expressed in transfected cells; host or cells: Xenopus oocytes injected with cRNA (pUNIV vector)
Method: as §1
as §2, with “For the data where statistical analysis was performed, a one-way ANOVA was used.” left out
as §3

[6] = system: ZAC^H79A; assay: TEVC in oocytes, ZAC H79A mutant; assay type: cell-based, human; settings: agonist; parallel recordings
Method: as §1
as §2, with “For the data where statistical analysis was performed, a one-way ANOVA was used.” left out
as §3

[7] = system: ZAC^FPM/hα1-Gly; assay: TEVC in oocytes, Cys-loop modified chimera ZAC^FPM/hα1-Gly; assay type: cell-based, human; settings: data not shown
Method: as §1
To probe the effects of exchanges of regions involved in the ECD/TMD cross-talk between the two CLRs fused in a chimera on its functionality, we constructed 12 additional chimeras, three for each of the four original chimeras (Fig. 1A). Inspired by the similar modifications that have been introduced in a functional GLIC/hα1-Gly chimera, we swapped one or both of two specific regions: the three-residue FPX (Phe-Pro-X) motif in the Cys-loop of the ECD (FPR, FPF and […] in ZAC, m5-HT3A and hα1 GlyR, respectively), which is known to protude into proximity of the M2-M3 linker during the ECD/TMD cross-talk, and the extracellular C-terminus of the TMD, which differs substantially in both amino acid sequence and length between ZAC and the two classical CLRs combined with it in the chimeras (Fig. 4B). […] In light of this, it was not surprising that the four chimeras comprising exchanges of both the FPX motif and the C-terminus also were non-functional (data not shown).

[8] = biological target: T5, ZAC^L9′I (Homo sapiens, UniProt Q401N2, A152T/L270I); assay: TEVC in oocytes, ZAC L9′I mutant; assay type: cell-based; settings: agonist; n = 8
T5 construct: expressed in transfected cells; host or cells: Xenopus oocytes (cRNA injection, pUNIV vector)
T5 sequence (Q401N2 26-412 A152T/L270I): T1 sequence (Q401N2 26-412 A152T/L270V) with V245I
Method: as §1, §2

[9] = biological target: T6, ZAC^E160A/E162A/C195A (Homo sapiens, UniProt Q401N2, A152T/C219A/E184A/E186A); assay: TEVC in oocytes, Cluster 4 triple mutant; assay type: cell-based; settings: agonist; n = 6
T6 construct: expressed in transfected cells; host or cells: Xenopus oocytes injected with cRNA (pUNIV vector)
Method: as §1
as §2, with “For the data where statistical analysis was performed, a one-way ANOVA was used.” left out
as §3

[10] = biological target: T7, ZAC^D105A (Homo sapiens, UniProt Q401N2, A152T/D129A); assay: TEVC in oocytes, ZAC D105A mutant; assay type: cell-based
T7 construct: expressed in transfected cells; host or cells: Xenopus oocytes (cRNA injection, pUNIV vector)
Method: as §1
as §2, with “For the data where statistical analysis was performed, a one-way ANOVA was used.” left out
as §3

[11] = system: ZAC/m5-HT3A-II; assay: TEVC in oocytes expressing ZAC/m5-HT3A-II chimera; assay type: cell-based, mouse/human; settings: Zn^2+ 10 mM; H^+ pH 4.0; data not shown
Method: as §1

T6 sequence (Q401N2 26-412 A152T/E184A/E186A/C219A): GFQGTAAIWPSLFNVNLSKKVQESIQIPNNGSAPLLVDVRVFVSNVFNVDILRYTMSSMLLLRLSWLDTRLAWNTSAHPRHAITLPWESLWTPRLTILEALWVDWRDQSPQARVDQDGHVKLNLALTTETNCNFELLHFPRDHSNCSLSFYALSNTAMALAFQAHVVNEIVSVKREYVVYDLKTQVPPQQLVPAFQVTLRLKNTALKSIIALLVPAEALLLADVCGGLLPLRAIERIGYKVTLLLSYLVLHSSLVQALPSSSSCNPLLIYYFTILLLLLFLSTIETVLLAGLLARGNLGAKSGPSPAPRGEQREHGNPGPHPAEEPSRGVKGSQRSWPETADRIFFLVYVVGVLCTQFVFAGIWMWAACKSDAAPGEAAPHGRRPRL
T3 sequence (Q401N2 26-412 D129A/A152T/E154A): as the sequence (Q401N2 26-412 A152T/E184A/E186A/C219A) above, with D104A, E129A, A159E, A161E, A194C counted along it
T2 sequence (Q401N2 26-412 A152T/E160A/H163A/D167A/H168A): as the sequence (Q401N2 26-412 A152T/E184A/E186A/C219A) above, with E135A, H138A, D142A, H143A, A159E, A161E, A194C counted along it
T7 sequence (Q401N2 26-412 D129A/A152T): as the sequence (Q401N2 26-412 A152T/E184A/E186A/C219A) above, with D104A, A159E, A161E, A194C counted along it
T4 sequence (Q401N2 26-412 A152T/H190A): as the sequence (Q401N2 26-412 A152T/E184A/E186A/C219A) above, with A159E, A161E, H165A, A194C counted along it

SMILES: [Cl-].[Cl-].[Zn+2] [Zn^2+, ZnCl2]
- EC50 [1]: 13 µM
- nH ± S.E.M. (Hill slope) [1]: 0.7 ± 0.3
- pEC50 ± S.E.M. [1]: 4.88 ± 0.22
- agonist responsiveness [2]: non-responsive
- agonist responsiveness [3]: non-responsive
- I10 mM Zn2+ ± S.E.M. [4]: −0.0038 ± 0.0009 μA
- agonist properties compared to WT ZAC [5]: WT-like agonist properties
- fitted EC50 relative to WT ZAC (higher) [6]: 2.4 fold
- concentration-response relationship compared to ZAC/hα1-Gly [7]: not significantly different
- EC50 [8]: 24 µM
- nH ± S.E.M. (Hill slope) [8]: 0.8 ± 0.2
- pEC50 ± S.E.M. [8]: 4.62 ± 0.15
- EC50 [9]: 180 µM
- pEC50 ± S.E.M. [9]: 3.75 ± 0.05
- concentration-response relationship compared to WT ZAC [10]: did not differ significantly
- agonist-evoked current [11]: did not evoke significant currents

Reference: publication PMC11359809, “Probing the molecular basis for signal transduction through the Zinc-Activated Channel (ZAC)” (Biochemical pharmacology, 2021)
